Converted amounts (≈) assume the structure as drawn. The source made the active and inactive calls. The rule behind the calls is not given here.
What was measured:
[1] = molecular target: T1, ATP-dependent Clp protease proteolytic subunit (Staphylococcus aureus (strain NCTC 8325), UniProt Q2G036); experiment: Agonist activity at Staphylococcus aureus ClpP extracted from Escherichia coli BL21 (DE3) cells using alpha-casein as substrate assessed as substrate hydrolysis preincubated for 15 mins followed by substrate addition and measured after 2 hrs by SDS-PAGE analysis
T1 sequence (Q2G036 whole entry): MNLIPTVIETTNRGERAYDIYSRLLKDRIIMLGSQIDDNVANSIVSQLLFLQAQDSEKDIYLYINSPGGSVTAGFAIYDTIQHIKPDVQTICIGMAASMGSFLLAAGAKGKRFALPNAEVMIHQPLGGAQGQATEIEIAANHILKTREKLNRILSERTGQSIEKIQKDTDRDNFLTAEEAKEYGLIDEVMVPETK

Staphylococcus aureus [2] = experiment: microbe, parasite or virus in culture; assay type: functional; settings: Newman, time 18 hrs
Description: Antibacterial activity against Staphylococcus aureus Newman assessed as inhibition of visible growth of bacteria incubated for 18 hrs by absorbance based analysis

[3] = Octanol/water partition coefficient, log P of the compound at pH 7.4 incubated for 24 hrs by LC-MS analysis; assay type: physicochemical
Staphylococcus aureus [4] = experiment: microbe, parasite or virus in culture; assay type: functional; settings: time 18 hrs
Description: Antibacterial activity against multidrug-resistant Staphylococcus aureus clinical isolate XJ052 assessed as inhibition of visible growth of bacteria incubated for 18 hrs by absorbance based analysis

Staphylococcus aureus [5] = experiment: microbe, parasite or virus in culture; assay type: functional; settings: time 18 hrs; remark: listed apart in the source
Description: Antibacterial activity against multidrug-resistant Staphylococcus aureus clinical isolate XJ049 assessed as inhibition of visible growth of bacteria incubated for 18 hrs by absorbance based analysis

Staphylococcus aureus [6] = experiment: microbe, parasite or virus in culture; assay type: functional; settings: NRS-70, time 18 hrs
Description: Antibacterial activity against methicillin-resistant Staphylococcus aureus NRS-70 assessed as inhibition of visible growth of bacteria incubated for 18 hrs by absorbance based analysis

Staphylococcus aureus [7] = experiment: microbe, parasite or virus in culture; assay type: functional; settings: NRS-271, time 18 hrs
Description: Antibacterial activity against methicillin-resistant Staphylococcus aureus NRS-271 assessed as inhibition of visible growth of bacteria incubated for 18 hrs by absorbance based analysis

Staphylococcus aureus [8] = experiment: microbe, parasite or virus in culture; assay type: functional; settings: time 18 hrs; remark: listed apart in the source
Description: Antibacterial activity against multidrug-resistant Staphylococcus aureus clinical isolate XJ051 assessed as inhibition of visible growth of bacteria incubated for 18 hrs by absorbance based analysis

Staphylococcus aureus [9] = experiment: microbe, parasite or virus in culture; assay type: functional; settings: time 18 hrs; remark: listed apart in the source
Description: Antibacterial activity against multidrug-resistant Staphylococcus aureus clinical isolate XJ009 assessed as inhibition of visible growth of bacteria incubated for 18 hrs by absorbance based analysis

Staphylococcus aureus [10] = experiment: microbe, parasite or virus in culture; assay type: functional; settings: USA300, time 18 hrs
Description: Antibacterial activity against methicillin-resistant Staphylococcus aureus USA300 assessed as inhibition of visible growth of bacteria incubated for 18 hrs by absorbance based analysis

Staphylococcus aureus [11] = experiment: microbe, parasite or virus in culture; assay type: functional; settings: NRS-1, time 18 hrs
Description: Antibacterial activity against methicillin-resistant Staphylococcus aureus NRS-1 assessed as inhibition of visible growth of bacteria incubated for 18 hrs by absorbance based analysis

Staphylococcus aureus [12] = experiment: microbe, parasite or virus in culture; assay type: functional; settings: NRS-108, time 18 hrs
Description: Antibacterial activity against methicillin-resistant Staphylococcus aureus NRS-108 assessed as inhibition of visible growth of bacteria incubated for 18 hrs by absorbance based analysis

Staphylococcus aureus [13] = experiment: microbe, parasite or virus in culture; assay type: functional; settings: time 18 hrs; remark: listed apart in the source
Description: Antibacterial activity against multidrug-resistant Staphylococcus aureus clinical isolate XJ025 assessed as inhibition of visible growth of bacteria incubated for 18 hrs by absorbance based analysis

Staphylococcus aureus [14] = experiment: Antibacterial activity against oxacillin-resistant Staphylococcus aureus clinical isolate XJ049 infected in female ICR mouse peritonitis model assessed as mouse survival at 50 mg/kg, ip pre-infected for 1 hrs followed by compound addition and measured after 5 days relative to control; assay type: functional; settings: 120 h, time 5 day
[15] = molecular target: T2, ATP-dependent Clp protease proteolytic subunit, mitochondrial (Homo sapiens, UniProt Q16740); experiment: Agonist activity at human ClpP extracted from Escherichia coli Rosetta (DE3) cells using alpha-casein as substrate assessed as substrate hydrolysis preincubated for 15 mins followed by substrate addition and measured after 2 hrs by SDS-PAGE analysis
[16] = molecular target: T1, ATP-dependent Clp protease proteolytic subunit; experiment: Agonist activity at Staphylococcus aureus ClpP extracted from Escherichia coli BL21 (DE3) cells using FITC-casein as substrate assessed as substrate hydrolysis preincubated for 60 mins followed by substrate addition and measured after 1 hrs by fluorescence based analysis
[17] = Therapeutic index, ratio of IC50 for human ARH-77 cells to MIC for Staphylococcus aureus Newman; assay type: toxicity, cell-based; settings: read-out: TI
[18] = Therapeutic index, ratio of IC50 for HK-2 cells to MIC for Staphylococcus aureus Newman; assay type: toxicity, cell-based; settings: human, read-out: TI
Staphylococcus aureus [19] = experiment: Antibacterial activity against Staphylococcus aureus USA300 infected in Zebrafish infection model assessed as increase in zebrafish survival at 5 to 25 mg/kg pre-infected for 1 hrs followed by compound addition and measured after 5 days; assay type: functional, organism-based; settings: dose 5-25 mg/kg, time 5.0 day
[20] = Agonist activity at Lactobacillus acidophilus ClpP using alpha-casein as substrate assessed as substrate hydrolysis preincubated for 15 mins followed by substrate addition and measured after 2 hrs by SDS-PAGE analysis
[21] = molecular target: T3, ATP-dependent Clp protease proteolytic subunit (Staphylococcus aureus (strain NCTC 8325)) (UniProt Q2G036); experiment: Induction of thermal stabilization of Staphylococcus aureus ClpP extracted from Escherichia coli BL21 (DE3) cells assessed as change in melting temperature at 10 uM incubated for 10 mins by DSF analysis
T3 sequence (whole entry): T1 sequence (Q2G036 whole entry)

[22] = Therapeutic index, ratio of IC50 for HEK293T/17 cells to MIC for Staphylococcus aureus Newman; assay type: toxicity, cell-based; settings: human, read-out: TI
[23] = molecular target: ATP-dependent Clp protease proteolytic subunit (Escherichia coli (strain K12), UniProt P0A6G7); experiment: Agonist activity at Escherichia coli ClpP using alpha-casein as substrate assessed as substrate hydrolysis preincubated for 15 mins followed by substrate addition and measured after 2 hrs by SDS-PAGE analysis
[24] = molecular target: T2, ATP-dependent Clp protease proteolytic subunit, mitochondrial; experiment: Induction of thermal stabilization of human ClpP extracted from Escherichia coli Rosetta (DE3) cells assessed as change in melting temperature at 10 uM incubated for 10 mins by DSF analysis
[25] = Cytotoxicity against HEK293T/17 cells by MTT assay; assay type: toxicity, cell-based; settings: human
Staphylococcus aureus [26] = experiment: Antibacterial activity against methicillin resistant Staphylococcus aureus NRS 119 by CLSI protocol based broth microdilution method; assay type: functional
[27] = Therapeutic index, ratio of IC50 for HEK293T/17 cells to MIC for methicillin resistant Staphylococcus aureus NRS 119; assay type: toxicity, cell-based; settings: human, read-out: TI

T2 sequence (Q16740 whole entry): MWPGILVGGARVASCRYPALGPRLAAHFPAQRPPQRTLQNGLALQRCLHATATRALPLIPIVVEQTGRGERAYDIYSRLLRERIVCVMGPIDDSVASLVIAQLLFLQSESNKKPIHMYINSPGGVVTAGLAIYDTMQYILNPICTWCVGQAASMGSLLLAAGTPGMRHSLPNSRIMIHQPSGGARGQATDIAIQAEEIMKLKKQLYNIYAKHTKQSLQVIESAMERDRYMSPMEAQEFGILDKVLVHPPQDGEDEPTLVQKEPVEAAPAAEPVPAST
ATP-dependent Clp protease proteolytic subunit (Escherichia coli (strain K12), UniProt P0A6G7), sequence (P0A6G7 whole entry): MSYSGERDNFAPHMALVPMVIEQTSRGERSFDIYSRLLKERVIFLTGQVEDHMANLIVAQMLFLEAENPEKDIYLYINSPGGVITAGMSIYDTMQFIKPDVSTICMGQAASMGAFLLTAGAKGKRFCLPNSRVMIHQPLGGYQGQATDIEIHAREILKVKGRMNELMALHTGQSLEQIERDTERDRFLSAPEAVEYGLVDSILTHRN

| Compound | EC50 [1] [nM] | MIC (Staphylococcus aureus [2]) [µg/mL] | MIC (Staphylococcus aureus [4]) [µg/mL] | MIC (Staphylococcus aureus [5]) [µg/mL] | MIC (Staphylococcus aureus [6]) [µg/mL] | MIC (Staphylococcus aureus [7]) [µg/mL] | MIC (Staphylococcus aureus [8]) [µg/mL] | MIC (Staphylococcus aureus [9]) [µg/mL] | MIC (Staphylococcus aureus [10]) [µg/mL] | MIC (Staphylococcus aureus [11]) [µg/mL] | MIC (Staphylococcus aureus [12]) [µg/mL] | MIC (Staphylococcus aureus [13]) [µg/mL] | other results |
| --- | --- | --- | --- | --- | --- | --- | --- | --- | --- | --- | --- | --- | --- |
| O=C1[C@H](Cc2cnc[nH]2)N2C(=O)CCN(C(=O)NCc3ccccc3)[C@H]2CN1Cc1cccc2ccccc12 | 500 | > 128 | – | – | – | – | – | – | – | – | – | – | logD at 24 h [3]: 3.09 |
| CCn1cc(C(=O)O)c(=O)c2cc(F)c(N3CCNCC3)cc21 [NORFLOXACIN] | – | 0.25 (≈ 0.783 µM) | > 128 | > 128 | 1 (≈ 3.13 µM) | > 128 | > 128 | > 128 | 16 (≈ 50.1 µM) | 64 (≈ 200 µM) | 32 (≈ 100 µM) | > 128 | – |
| Cc1onc(-c2ccccc2)c1C(=O)N[C@@H]1C(=O)N2[C@@H]1SC(C)(C)[C@@H]2C(=O)O [OXACILLIN] | – | 0.13 (≈ 0.324 µM) | > 128 | > 128 | 0.25 (≈ 0.623 µM) | 32 (≈ 79.7 µM) | > 128 | > 128 | 0.25 (≈ 0.623 µM) | 64 (≈ 159 µM) | 0.25 (≈ 0.623 µM) | 32 (≈ 79.7 µM) | survival at 50 mg/kg (Staphylococcus aureus [14]): 56% |
| CN[C@@H]1[C@@H](O)[C@@H](O[C@@H]2[C@@H](O)[C@H](O[C@H]3O[C@H](CN)CC[C@H]3N)[C@@H](N)C[C@H]2N)OC[C@]1(C)O [GENTAMICIN C1A] | – | 0.5 (≈ 1.11 µM) | > 128 | 128 (≈ 285 µM) | 0.5 (≈ 1.11 µM) | 0.5 (≈ 1.11 µM) | > 128 | 64 (≈ 142 µM) | 1 (≈ 2.22 µM) | > 128 | 0.25 (≈ 0.556 µM) | 128 (≈ 285 µM) | – |
| CC[C@H](C)[C@H]1C(=O)N([C@H](C)c2cccc3ccccc23)C[C@@H]2N(C(=O)NCCCC(F)(F)F)CCC(=O)N12 | 1200 | 2 (≈ 3.76 µM) | 2 (≈ 3.76 µM) | 2 (≈ 3.76 µM) | 1 (≈ 1.88 µM) | 1 (≈ 1.88 µM) | 1 (≈ 1.88 µM) | 2 (≈ 3.76 µM) | 1 (≈ 1.88 µM) | 2 (≈ 3.76 µM) | 1 (≈ 1.88 µM) | 2 (≈ 3.76 µM) | EC50 [15]: 31400 nM; EC50 [16]: 720 nM; selectivity ratio [17]: 27; selectivity ratio [18]: 29; Activity (Staphylococcus aureus [19]): Active; EC50 [20]: > 100000 nM; ΔTm [21]: 13 °C; selectivity ratio [22]: 25; EC50 [23]: > 100000 nM; ΔTm [24]: 3 °C |
| NC[C@H]1O[C@H](O[C@H]2[C@H](O)[C@@H](O[C@H]3O[C@H](CO)[C@@H](O)[C@H](N)[C@H]3O)[C@H](N)C[C@@H]2N)[C@H](O)[C@@H](O)[C@@H]1O [KANAMYCIN] | – | 4 (≈ 8.26 µM) | > 128 | > 128 | 64 (≈ 132 µM) | 2 (≈ 4.13 µM) | > 128 | > 128 | > 128 | > 128 | 64 (≈ 132 µM) | > 128 | – |
| O=C1C2=C(CCN(Cc3ccccc3)C2)N2CCN=C2N1Cc1ccc(C(F)(F)F)cc1 | 1200 | 0.002 (≈ 0.00454 µM) | 1 (≈ 2.27 µM) | 0.5 (≈ 1.14 µM) | 0.5 (≈ 1.14 µM) | 0.25 (≈ 0.568 µM) | 0.5 (≈ 1.14 µM) | 0.5 (≈ 1.14 µM) | 0.5 (≈ 1.14 µM) | 1 (≈ 2.27 µM) | 0.5 (≈ 1.14 µM) | 0.5 (≈ 1.14 µM) | EC50 [15]: 1900 nM; EC50 [16]: 720 nM; selectivity ratio [17]: 0.1; selectivity ratio [18]: 0.06; IC50 [25]: 0.002 µg/mL (≈ 0.00454 µM); EC50 [20]: 1140 nM; ΔTm [21]: 15.9 °C; selectivity ratio [22]: 0.04; EC50 [23]: 3970 nM; ΔTm [24]: 23.5 °C |
| CCC[C@@H]1C[C@@H](C(=O)N[C@@H]([C@H]2O[C@H](SC)[C@H](O)[C@@H](O)[C@H]2O)[C@H](C)Cl)N(C)C1 [CLINDAMYCIN] | – | 0.016 (≈ 0.0376 µM) | > 128 | > 128 | 128 (≈ 301 µM) | 0.016 (≈ 0.0376 µM) | 0.016 (≈ 0.0376 µM) | 128 (≈ 301 µM) | 0.008 (≈ 0.0188 µM) | 64 (≈ 151 µM) | 128 (≈ 301 µM) | 0.016 (≈ 0.0376 µM) | – |
| C[C@@H]1C[C@H]2C(=O)OC[C@H](NC(=O)[C@H](Cc3cc(F)cc(F)c3)NC(=O)CCC3CCCCC3)C(=O)N3CCC[C@H]3C(=O)N3CCCC[C@H]3C(=O)N[C@@H](C)C(=O)N2C1 | – | – | – | – | – | – | – | – | – | – | – | – | MIC (Staphylococcus aureus [26]): 0.4 µg/mL (≈ 0.501 µM); IC50 [25]: 3.7 µg/mL (≈ 4.63 µM); selectivity ratio [27]: 9.3 |

Source: ChEMBL document CHEMBL6096689, “Structure-Guided Development of ClpP Agonists with Potent Therapeutic Activities against Staphylococcus aureus Infection” (J Med Chem, 2025)
